{
  "source": "paper PMC10287555",
  "about": "“Camonsertib in DNA damage response-deficient advanced solid tumors: phase 1 trial results” (Nature Medicine, 2023)",
  "origin": "cited, not measured here",
  "system": "advanced solid tumors",
  "details": "combination with gemcitabine; cited from earlier work",
  "data": [
    {"smiles": "CNCc1ccc(-c2cc(-c3nc(-c4ccc(S(=O)(=O)C(C)C)cc4)cnc3N)on2)cc1", "note": "[berzosertib]", "values": [
      {"measurement": "Response rate in TMB-H NSCLC versus patients without elevated TMB", "value": "higher response rates"}
    ]}
  ]
}
